melting point: 60 to 62 °C
Structure (SMILES): C[C@@H]1C[C@H](CC2CCCCC2)C(=O)O1 (relative stereo) [Example 20, cis-3-cyclohexylmethyl-5-methyl-dihydro-furan-2-one]

From patent publication US20060030719A1, “Cis-3,5-disubstituted-dihydro-furan-2-ones and the preparation and use thereof” (priority 2004, published 2006)
